In ChEMBL document CHEMBL1208738, “Optimization of privileged structures for selective and potent melanocortin subtype-4 receptor ligands” (Bioorg Med Chem Lett, 2010):

Tests used:
[1] = organism: Homo sapiens; assay: Selectivity ratio of IC50 for human MC5 receptor to IC50 for human MC4 receptor
[2] = organism: Homo sapiens; assay: Selectivity ratio of EC50 for human MC1 receptor to EC50 for human MC4 receptor
[3] = organism: Homo sapiens; assay: Selectivity ratio of EC50 for human MC5 receptor to EC50 for human MC4 receptor
[4] = target: T1, Melanocortin receptor 3 (Homo sapiens, UniProt P41968); assay: Agonist activity at human MC3 receptor expressed in CHO cells assessed as increase of alpha-MSH-induced cAMP accumulation at 10 uM relative to alpha-MSH; format: functional, cell-based
[5] = organism: Homo sapiens; assay: Selectivity ratio of IC50 for human MC1 receptor to IC50 for human MC4 receptor
[6] = target: T2, Melanocyte-stimulating hormone receptor (Homo sapiens, UniProt Q01726); assay: Agonist activity at human MC1 receptor expressed in CHO cells assessed as increase of alpha-MSH-induced cAMP accumulation at 10 uM relative to alpha-MSH; format: functional, cell-based
Target sequence in this assay (Q01726 whole entry, looked up): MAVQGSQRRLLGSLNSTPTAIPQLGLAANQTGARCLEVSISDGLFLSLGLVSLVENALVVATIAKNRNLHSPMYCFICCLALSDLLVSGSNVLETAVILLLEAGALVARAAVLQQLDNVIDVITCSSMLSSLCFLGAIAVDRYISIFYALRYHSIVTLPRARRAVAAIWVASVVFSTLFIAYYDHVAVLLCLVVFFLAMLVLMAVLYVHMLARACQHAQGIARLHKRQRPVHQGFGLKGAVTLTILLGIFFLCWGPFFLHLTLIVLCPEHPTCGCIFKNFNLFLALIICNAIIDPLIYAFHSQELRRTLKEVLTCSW

[7] = target: T3, Melanocortin receptor 5 (Homo sapiens, UniProt P33032); assay: Agonist activity at human MC5 receptor expressed in CHO cells assessed as increase of alpha-MSH-induced cAMP accumulation at 10 uM relative to alpha-MSH; format: functional, cell-based
[8] = target: T4, Melanocortin receptor 4 (Homo sapiens, UniProt P32245); assay: Agonist activity at human MC4 receptor expressed in CHO cells assessed as increase of alpha-MSH-induced cAMP accumulation at 10 uM relative to alpha-MSH; format: functional, cell-based
[9] = target: T4, Melanocortin receptor 4; assay: Displacement of [125I]NDP-alpha-MSH from human MC4 receptor expressed in CHO cells; format: cell-based
[10] = target: T4, Melanocortin receptor 4; assay: Agonist activity at human MC4 receptor expressed in CHO cells assessed as increase of alpha-MSH-induced cAMP accumulation; format: functional, cell-based
[11] = target: T3, Melanocortin receptor 5; assay: Agonist activity at human MC5 receptor expressed in CHO cells assessed as increase of alpha-MSH-induced cAMP accumulation; format: functional, cell-based
[12] = target: T1, Melanocortin receptor 3; assay: Agonist activity at human MC3 receptor expressed in CHO cells assessed as increase of alpha-MSH-induced cAMP accumulation; format: functional, cell-based
[13] = target: T1, Melanocortin receptor 3; assay: Displacement of [125I]NDP-alpha-MSH from human MC3 receptor expressed in CHO cells; format: cell-based
[14] = target: T2, Melanocyte-stimulating hormone receptor; assay: Displacement of [125I]NDP-alpha-MSH from human MC1 receptor expressed in CHO cells; format: cell-based
Target sequence in this assay (Q01726 whole entry): as the sequence (Q01726 whole entry, looked up) above

[15] = target: T3, Melanocortin receptor 5; assay: Displacement of [125I]NDP-alpha-MSH from human MC5 receptor expressed in CHO cells; format: cell-based
[16] = target: T2, Melanocyte-stimulating hormone receptor; assay: Agonist activity at human MC1 receptor expressed in CHO cells assessed as increase of alpha-MSH-induced cAMP accumulation; format: functional, cell-based
Target sequence in this assay (Q01726 whole entry): as the sequence (Q01726 whole entry, looked up) above

T4 sequence (P32245 whole entry): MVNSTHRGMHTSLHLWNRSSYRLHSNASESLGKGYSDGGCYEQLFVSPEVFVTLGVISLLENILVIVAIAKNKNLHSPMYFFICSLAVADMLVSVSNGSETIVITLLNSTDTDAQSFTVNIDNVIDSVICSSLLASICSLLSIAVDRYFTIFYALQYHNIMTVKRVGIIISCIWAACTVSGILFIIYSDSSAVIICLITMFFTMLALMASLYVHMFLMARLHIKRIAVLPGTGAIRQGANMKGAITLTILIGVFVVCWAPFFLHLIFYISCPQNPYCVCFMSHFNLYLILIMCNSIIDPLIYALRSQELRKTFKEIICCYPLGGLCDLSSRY
T3 sequence (P33032 whole entry): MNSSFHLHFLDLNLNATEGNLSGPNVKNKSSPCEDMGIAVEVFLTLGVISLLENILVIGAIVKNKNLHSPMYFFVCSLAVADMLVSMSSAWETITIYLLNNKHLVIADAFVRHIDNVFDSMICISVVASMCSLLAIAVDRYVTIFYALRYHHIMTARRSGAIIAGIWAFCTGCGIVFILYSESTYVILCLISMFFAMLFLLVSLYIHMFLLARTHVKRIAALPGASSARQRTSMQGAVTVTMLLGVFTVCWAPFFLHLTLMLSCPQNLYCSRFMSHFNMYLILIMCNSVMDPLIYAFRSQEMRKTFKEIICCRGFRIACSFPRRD
T1 sequence (P41968 whole entry): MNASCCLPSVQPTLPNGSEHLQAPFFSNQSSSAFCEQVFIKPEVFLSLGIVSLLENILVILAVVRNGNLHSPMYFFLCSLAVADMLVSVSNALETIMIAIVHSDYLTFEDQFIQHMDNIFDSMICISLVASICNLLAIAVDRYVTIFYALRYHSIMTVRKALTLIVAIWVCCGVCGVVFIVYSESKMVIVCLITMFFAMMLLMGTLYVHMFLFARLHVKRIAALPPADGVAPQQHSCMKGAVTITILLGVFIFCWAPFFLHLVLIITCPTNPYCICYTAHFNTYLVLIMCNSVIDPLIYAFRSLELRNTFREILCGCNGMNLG

CC(C)N(CC(C1CCCCC1)N1CCN(C(=O)[C@@H]2CN(C(C)(C)C)C[C@H]2c2ccc(F)cc2F)CC1)C(=O)c1cnn(C(C)C)c1 (single isomer, unassigned; diastereomer 1) [listing 1 of 2 here]
Ratio IC50 [1]: 20 | Ratio EC50 [2]: 20 | Ratio EC50 [3]: 20 | Activity [4]: 102% | Ratio IC50 [5]: 20 | Activity [6]: 60% | Activity [7]: 62% | Activity [8]: 106%

CC(=O)N(CC(N1CCN(C(=O)[C@@H]2CN(C(C)(C)C)C[C@H]2c2ccc(F)cc2F)CC1)C(C)(C)C)C(C)C (single isomer, unassigned; diastereomer 2)
Activity [8]: 94%

CC(C)N(CC(N1CCN(C(=O)[C@@H]2CN(C(C)(C)C)C[C@H]2c2ccc(F)cc2F)CC1)C(C)(C)C)S(C)(=O)=O (stereo in doubt; 27A)
IC50 [9]: 53 nM | EC50 [10]: 19 nM

CC(C)N(CC(C1CCCCC1)N1CCN(C(=O)[C@@H]2CN(C(C)(C)C)C[C@H]2c2ccc(F)cc2F)CC1)S(C)(=O)=O (single isomer, unassigned; diastereomer 1) [listing 1 of 2 here]
Activity [8]: 114%

CC(C)N(CC(C1CCCCC1)N1CCN(C(=O)[C@@H]2CN(C(C)(C)C)C[C@H]2c2ccc(F)cc2F)CC1)S(C)(=O)=O (single isomer, unassigned; diastereomer 1) [listing 2 of 2 here]
IC50 [9]: 15 nM | EC50 [10]: 25 nM

CC(C)CN(CC(C)C)CC(C1CCCCC1)N1CCN(C(=O)[C@@H]2CN(C(C)(C)C)C[C@H]2c2ccc(F)cc2F)CC1 (stereo partly specified)
IC50 [9]: 1900 nM | EC50 [10]: 6700 nM | Activity [8]: 10%

CC(C)N(CC(N1CCN(C(=O)[C@@H]2CN(C(C)(C)C)C[C@H]2c2ccc(F)cc2F)CC1)C(C)(C)C)S(C)(=O)=O (stereo in doubt; 27B) [listing 1 of 2 here]
Activity [8]: 102%

CC(C)N(CC(N1CCN(C(=O)[C@@H]2CN(C(C)(C)C)C[C@H]2c2ccc(F)cc2F)CC1)C(C)(C)C)S(C)(=O)=O (stereo in doubt; 27B) [listing 2 of 2 here]
IC50 [9]: 46 nM | EC50 [10]: 44 nM

CC(C)N(CC(C1CCCCC1)N1CCN(C(=O)[C@@H]2CN(C(C)(C)C)C[C@H]2c2ccc(F)cc2F)CC1)C(=O)c1cnn(C(C)C)c1 (single isomer, unassigned; diastereomer 1) [listing 2 of 2 here]
EC50 [11]: 1000 nM | IC50 [9]: 18 nM | EC50 [12]: 79 nM | IC50 [13]: 870 nM | IC50 [14]: 730 nM | IC50 [15]: 620 nM | EC50 [16]: 520 nM | EC50 [10]: 6.4 nM

CC(C)N(CC(C1CCCCC1)N1CCN(C(=O)[C@@H]2CN(C(C)(C)C)C[C@H]2c2ccc(F)cc2F)CC1)C(=O)c1cnn(C(C)C)c1 (single isomer, unassigned; diastereomer 2)
IC50 [9]: 62 nM | EC50 [10]: 19 nM

CC(=O)N(CC(C1CCCCC1)N1CCN(C(=O)[C@@H]2CN(C(C)(C)C)C[C@H]2c2ccc(F)cc2F)CC1)C(C)C (single isomer, unassigned; diastereomer 1) [listing 1 of 2 here]
IC50 [9]: 29 nM | EC50 [10]: 50 nM

CC(C)N(CC(C1CCCCC1)N1CCN(C(=O)[C@@H]2CN(C(C)(C)C)C[C@H]2c2ccc(F)cc2F)CC1)C(=O)c1ncccn1 (single isomer, unassigned; diastereomer 1)
Activity [8]: 98%

CC(C)CC(CN(C(C)C)S(C)(=O)=O)N1CCN(C(=O)[C@@H]2CN(C(C)(C)C)C[C@H]2c2ccc(F)cc2F)CC1 (single isomer, unassigned; diastereomer 1)
IC50 [9]: 88 nM | EC50 [10]: 47 nM

CC(C)CC(CN(C(C)C)S(C)(=O)=O)N1CCN(C(=O)[C@@H]2CN(C(C)(C)C)C[C@H]2c2ccc(F)cc2F)CC1 (single isomer, unassigned; diastereomer 2)
Ratio IC50 [1]: 20 | Ratio EC50 [2]: 20 | Ratio EC50 [3]: 20 | Activity [4]: 87% | Ratio IC50 [5]: 20 | Activity [6]: 62% | Activity [7]: 76% | Activity [8]: 100%

CC(C)N(CC(C1CCCCC1)N1CCN(C(=O)[C@@H]2CN(C(C)(C)C)C[C@H]2c2ccc(F)cc2F)CC1)C(=O)c1cccnn1 (single isomer, unassigned; diastereomer 2)
Activity [8]: 99%

CC(C)N(CC(C1CCCCC1)N1CCN(C(=O)[C@@H]2CN(C(C)(C)C)C[C@H]2c2ccc(F)cc2F)CC1)C(=O)c1ncccn1 (stereo in doubt; 22B)
Activity [8]: 88%

CC(=O)N(CC(C1CCCCC1)N1CCN(C(=O)[C@@H]2CN(C(C)(C)C)C[C@H]2c2ccc(F)cc2F)CC1)C(C)C (single isomer, unassigned; diastereomer 1) [listing 2 of 2 here]
Activity [8]: 134%
